Legend:
Assay in all cases: Kinase Hotspot radiolabel assay
Format in all cases: biochemical
Conditions in all cases: read-out: % Residual Activity
EPHA8 = target: T1, EPHA8 (Homo sapiens, UniProt P29322)
T1 construct: purchased Reaction Biology Corporation (Kinase HotSpot)
Method: (§1) Kinase assay. The ADP Glo^TM kinase assay (Promega, Madison, WI, USA) was used to assess the inhibition by CDDD11-8 of CDKs 1, 2, 4, 6, 7, and 9, as well as the mutant isoforms of FLT3. The assays were performed in accord with the manufacturer’s protocol (Promega) as described previously. Briefly, serial three-fold dilutions of CDDD11-8 were prepared in 100% DMSO from a 2 mM stock solution, followed by 1:40 dilution into Milli-Q water. Subsequently, 1 µL of each sample was incubated with 4 µL of kinase mixture containing a particular CDK enzyme and its substrate, standard kinase buffer [3 mM MgCl2, 50 mM HEPES-NaOH pH 7.5, 3 mM MnCl2, 3 µM Na-orthovanadate, 1 mM dithiothreitol (DTT)], kinase dilution buffer (containing 0.25 mg/mL PEG20,000, 50 mM HEPES-NaOH pH 7.5, 1 mM DTT), and ATP at 37 °C for 30 to 40 min. The final reaction mixture contained 0.5% DMSO in all samples, and the applied kinase concentrations were 1, 1, 10, 40, 20, and 50 nM for CDK1, 2, 4, 6, 7, and 9, respectively. The reaction was stopped by adding ADP-Glo reagent and the mixture was incubated further in the dark at room temperature for 40 min. As a final step, kinase detection reagent was added to each mixture and incubated at room temperature for 30 to 60 min. Luminescence was read using an EnVision® multilabel plate reader (PerkinElmer, Beaconsfield, UK), and half-maximum inhibitory concentrations (IC50) were calculated using a non-linear regression model with a variable slope, plotting log (inhibitor concentration) vs. response using the following formula: Ar%=Bottom+Top−Bottom/1+Inhibitor Concentration/IC50^HillSlope where the relative activity Ar (%) is the signal relative to the controls, IC50 is the half maximum concentration, Hillslope is the steepness of the dose-response curve, Top and Bottom are plateaus reflecting the maximum and minimum in responses on the Y-axis (GraphPad Prism version 7, San Diego, CA, USA). Ki values were calculated from the IC50 using the Cheng−Prusoff equation [32]. Extensive specificity assessment was carried out by Reaction Biology Corporation (Malvern, PA, USA) with 369 kinases using 1 µM CDDD11-8 concentration in a Kinase Hotspot radiolabel assay (for experimental details, please see (Reaction Biology https://www.reactionbiology.com/). Subsequently, Ki values were determined for kinases with greater than 90% inhibition.

KSR2 = target: T2, KSR2 (Homo sapiens, UniProt Q6VAB6)
T2 construct: purchased Reaction Biology Corporation (Kinase HotSpot)
Method: as §1

CDK19/cyclin C = target: T3, CDK19/cyclin C (Homo sapiens, UniProt Q9BWU1)
T3 construct: purchased Reaction Biology Corporation (Kinase HotSpot)
Method: as §1

MEK1 = target: T4, MEK1 (Homo sapiens, UniProt Q02750)
T4 construct: purchased Reaction Biology Corporation (Kinase HotSpot)
Method: as §1

CDK9/cyclin T2 = target: T5, CDK9/cyclin T2 (Homo sapiens, UniProt P50750)
T5 construct: purchased Reaction Biology Corporation (Kinase HotSpot)
Method: as §1

MYO3b = target: T6, MYO3b (Homo sapiens, UniProt Q8WXR4)
T6 construct: purchased Reaction Biology Corporation (Kinase HotSpot)
Method: as §1

NEK3 = target: T7, NEK3 (Homo sapiens, UniProt P51956)
T7 construct: purchased Reaction Biology Corporation (Kinase HotSpot)
Method: as §1

CDK2/Cyclin A1 = target: T8, CDK2/Cyclin A1 (Homo sapiens, UniProt P24941)
T8 construct: purchased Reaction Biology Corporation (Kinase HotSpot)
Method: as §1

MLK1/MAP3K9 = target: T9, MLK1/MAP3K9 (Homo sapiens, UniProt P80192)
T9 construct: purchased Reaction Biology Corporation (Kinase HotSpot)
Method: as §1

EPHB1 = target: T10, EPHB1 (Homo sapiens, UniProt P54762)
T10 construct: purchased Reaction Biology Corporation (Kinase HotSpot)
Method: as §1

ERN2/IRE2 = target: T11, ERN2/IRE2 (Homo sapiens, UniProt Q76MJ5)
T11 construct: purchased Reaction Biology Corporation (Kinase HotSpot)
Method: as §1

CDC7/DBF4 = target: T12, CDC7/DBF4 (Homo sapiens, UniProt O00311)
T12 construct: purchased Reaction Biology Corporation (Kinase HotSpot)
Method: as §1

MYLK4 = target: T13, MYLK4 (Homo sapiens, UniProt Q86YV6)
T13 construct: purchased Reaction Biology Corporation (Kinase HotSpot)
Method: as §1

PIM3 = target: T14, PIM3 (Homo sapiens, UniProt Q86V86)
T14 construct: purchased Reaction Biology Corporation (Kinase HotSpot)
Method: as §1

DYRK2 = target: T15, DYRK2 (Homo sapiens, UniProt Q92630)
T15 construct: purchased Reaction Biology Corporation (Kinase HotSpot)
Method: as §1

JAK2 = target: T16, JAK2 (Homo sapiens, UniProt O60674)
T16 construct: purchased Reaction Biology Corporation (Kinase HotSpot)
Method: as §1

CK1a1 = target: T17, CK1a1 (Homo sapiens, UniProt P48729)
T17 construct: purchased Reaction Biology Corporation (Kinase HotSpot)
Method: as §1

MLK4 = target: T18, MLK4 (Homo sapiens, UniProt Q5TCX8)
T18 construct: purchased Reaction Biology Corporation (Kinase HotSpot)
Method: as §1

CAMK1a = target: T19, CAMK1a (Homo sapiens, UniProt Q14012)
T19 construct: purchased Reaction Biology Corporation (Kinase HotSpot)
Method: as §1

MEKK3 = target: T20, MEKK3 (Homo sapiens, UniProt Q99759)
T20 construct: purchased Reaction Biology Corporation (Kinase HotSpot)
Method: as §1

TRKA = target: T21, TRKA (Homo sapiens, UniProt P04629)
T21 construct: purchased Reaction Biology Corporation (Kinase HotSpot)
Method: as §1

CDK17/cyclin Y (PCTK2) = target: T22, CDK17/cyclin Y (PCTK2) (Homo sapiens, UniProt Q00537)
T22 construct: purchased Reaction Biology Corporation (Kinase HotSpot)
Method: as §1

CAMK1b = target: T23, CAMK1b (Homo sapiens, UniProt Q6P2M8)
T23 construct: purchased Reaction Biology Corporation (Kinase HotSpot)
Method: as §1

WEE1 = target: T24, WEE1 (Homo sapiens, UniProt P30291)
T24 construct: purchased Reaction Biology Corporation (Kinase HotSpot)
Method: as §1

MAPKAPK2 = target: T25, MAPKAPK2 (Homo sapiens, UniProt P49137)
T25 construct: purchased Reaction Biology Corporation (Kinase HotSpot)
Method: as §1

RON/MST1R = target: T26, RON/MST1R (Homo sapiens, UniProt Q04912)
T26 construct: purchased Reaction Biology Corporation (Kinase HotSpot)
Method: as §1

ULK1 = target: T27, ULK1 (Homo sapiens, UniProt O75385)
T27 construct: purchased Reaction Biology Corporation (Kinase HotSpot)
Method: as §1

EPHB4 = target: T28, EPHB4 (Homo sapiens, UniProt P54760)
T28 construct: purchased Reaction Biology Corporation (Kinase HotSpot)
Method: as §1

HIPK1 = target: T29, HIPK1 (Homo sapiens, UniProt Q86Z02)
T29 construct: purchased Reaction Biology Corporation (Kinase HotSpot)
Method: as §1

JNK1 = target: T30, JNK1 (Homo sapiens, UniProt P45983)
T30 construct: purchased Reaction Biology Corporation (Kinase HotSpot)
Method: as §1

T23 sequence (Q6P2M8 whole entry): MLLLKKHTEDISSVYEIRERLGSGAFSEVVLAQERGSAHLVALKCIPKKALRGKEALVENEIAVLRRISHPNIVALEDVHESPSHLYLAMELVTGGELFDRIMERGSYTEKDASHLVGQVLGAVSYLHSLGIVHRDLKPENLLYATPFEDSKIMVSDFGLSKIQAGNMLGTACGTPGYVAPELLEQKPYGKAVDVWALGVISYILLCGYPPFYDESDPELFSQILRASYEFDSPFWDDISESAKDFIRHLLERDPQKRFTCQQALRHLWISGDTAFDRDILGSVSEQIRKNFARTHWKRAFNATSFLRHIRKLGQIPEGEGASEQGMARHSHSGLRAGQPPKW
T2 sequence (Q6VAB6 whole entry): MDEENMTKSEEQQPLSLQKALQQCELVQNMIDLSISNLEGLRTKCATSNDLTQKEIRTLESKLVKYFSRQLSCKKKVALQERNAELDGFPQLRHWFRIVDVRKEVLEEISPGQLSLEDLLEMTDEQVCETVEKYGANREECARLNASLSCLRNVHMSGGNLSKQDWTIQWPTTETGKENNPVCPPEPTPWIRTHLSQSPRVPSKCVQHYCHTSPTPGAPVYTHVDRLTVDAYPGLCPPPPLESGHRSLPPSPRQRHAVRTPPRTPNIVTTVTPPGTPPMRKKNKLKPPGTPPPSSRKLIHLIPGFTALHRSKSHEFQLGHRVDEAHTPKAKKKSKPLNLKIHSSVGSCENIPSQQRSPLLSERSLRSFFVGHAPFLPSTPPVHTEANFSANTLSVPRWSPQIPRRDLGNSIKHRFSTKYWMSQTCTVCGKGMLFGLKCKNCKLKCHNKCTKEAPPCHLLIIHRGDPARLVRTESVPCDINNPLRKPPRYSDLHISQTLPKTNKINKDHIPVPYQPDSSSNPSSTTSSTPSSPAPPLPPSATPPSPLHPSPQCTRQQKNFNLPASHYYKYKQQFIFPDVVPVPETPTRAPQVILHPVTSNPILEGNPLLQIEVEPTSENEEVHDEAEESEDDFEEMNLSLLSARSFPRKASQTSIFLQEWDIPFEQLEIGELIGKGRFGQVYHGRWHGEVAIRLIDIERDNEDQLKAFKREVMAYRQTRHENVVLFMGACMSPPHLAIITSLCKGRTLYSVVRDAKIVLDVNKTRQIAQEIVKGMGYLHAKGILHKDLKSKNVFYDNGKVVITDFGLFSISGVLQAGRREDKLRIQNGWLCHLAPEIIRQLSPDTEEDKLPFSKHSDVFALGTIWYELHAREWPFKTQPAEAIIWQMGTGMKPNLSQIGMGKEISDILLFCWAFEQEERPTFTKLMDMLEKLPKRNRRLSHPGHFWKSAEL
T27 sequence (O75385 whole entry): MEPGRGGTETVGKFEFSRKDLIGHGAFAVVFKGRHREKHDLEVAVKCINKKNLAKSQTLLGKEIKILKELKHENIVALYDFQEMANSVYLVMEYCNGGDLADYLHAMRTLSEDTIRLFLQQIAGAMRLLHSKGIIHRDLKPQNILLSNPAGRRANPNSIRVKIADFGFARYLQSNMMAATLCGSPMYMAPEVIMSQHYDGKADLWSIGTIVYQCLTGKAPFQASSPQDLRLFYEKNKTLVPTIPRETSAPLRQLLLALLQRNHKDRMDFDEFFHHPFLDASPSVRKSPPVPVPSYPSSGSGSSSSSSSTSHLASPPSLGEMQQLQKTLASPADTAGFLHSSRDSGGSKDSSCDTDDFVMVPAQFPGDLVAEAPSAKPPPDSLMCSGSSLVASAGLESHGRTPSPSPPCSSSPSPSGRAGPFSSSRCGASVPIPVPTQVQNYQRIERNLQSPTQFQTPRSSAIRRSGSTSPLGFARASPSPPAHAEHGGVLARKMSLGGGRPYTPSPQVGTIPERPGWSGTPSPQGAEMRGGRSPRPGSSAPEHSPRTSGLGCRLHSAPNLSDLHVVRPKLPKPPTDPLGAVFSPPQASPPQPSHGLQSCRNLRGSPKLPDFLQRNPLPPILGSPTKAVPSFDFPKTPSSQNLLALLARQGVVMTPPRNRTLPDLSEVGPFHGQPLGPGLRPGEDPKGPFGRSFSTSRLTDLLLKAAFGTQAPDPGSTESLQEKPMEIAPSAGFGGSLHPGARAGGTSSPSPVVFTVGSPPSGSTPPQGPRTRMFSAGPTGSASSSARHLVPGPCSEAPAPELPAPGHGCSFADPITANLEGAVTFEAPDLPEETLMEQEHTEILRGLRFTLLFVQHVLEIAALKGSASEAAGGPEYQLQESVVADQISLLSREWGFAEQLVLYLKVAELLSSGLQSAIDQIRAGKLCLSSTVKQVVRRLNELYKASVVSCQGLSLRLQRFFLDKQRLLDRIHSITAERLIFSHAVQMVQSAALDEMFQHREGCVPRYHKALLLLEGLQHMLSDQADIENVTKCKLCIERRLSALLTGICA
T22 sequence (Q00537 whole entry): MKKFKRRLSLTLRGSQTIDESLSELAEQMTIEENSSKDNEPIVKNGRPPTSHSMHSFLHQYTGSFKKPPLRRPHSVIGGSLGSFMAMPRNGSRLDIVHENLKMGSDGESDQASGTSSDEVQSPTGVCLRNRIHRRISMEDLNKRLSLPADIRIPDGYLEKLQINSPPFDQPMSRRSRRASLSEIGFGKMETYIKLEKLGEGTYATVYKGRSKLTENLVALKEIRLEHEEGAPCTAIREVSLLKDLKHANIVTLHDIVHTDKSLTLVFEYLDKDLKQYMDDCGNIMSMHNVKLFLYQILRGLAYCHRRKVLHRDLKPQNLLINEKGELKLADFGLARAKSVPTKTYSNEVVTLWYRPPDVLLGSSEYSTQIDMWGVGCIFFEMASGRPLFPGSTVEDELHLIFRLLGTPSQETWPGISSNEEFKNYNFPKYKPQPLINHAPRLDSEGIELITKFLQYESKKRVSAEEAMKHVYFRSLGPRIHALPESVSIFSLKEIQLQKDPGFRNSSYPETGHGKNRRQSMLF
T22 sequence (Q8ND76 whole entry partner): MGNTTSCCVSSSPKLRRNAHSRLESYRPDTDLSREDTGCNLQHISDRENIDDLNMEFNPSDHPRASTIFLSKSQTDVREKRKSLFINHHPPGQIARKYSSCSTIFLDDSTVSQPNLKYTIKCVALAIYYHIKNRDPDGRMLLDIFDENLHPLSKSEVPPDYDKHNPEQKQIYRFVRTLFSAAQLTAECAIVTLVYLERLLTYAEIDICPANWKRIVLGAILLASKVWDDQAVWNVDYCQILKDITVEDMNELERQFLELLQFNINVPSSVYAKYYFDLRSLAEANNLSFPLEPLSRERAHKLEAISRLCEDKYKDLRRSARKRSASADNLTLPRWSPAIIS
T28 sequence (P54760 16-987): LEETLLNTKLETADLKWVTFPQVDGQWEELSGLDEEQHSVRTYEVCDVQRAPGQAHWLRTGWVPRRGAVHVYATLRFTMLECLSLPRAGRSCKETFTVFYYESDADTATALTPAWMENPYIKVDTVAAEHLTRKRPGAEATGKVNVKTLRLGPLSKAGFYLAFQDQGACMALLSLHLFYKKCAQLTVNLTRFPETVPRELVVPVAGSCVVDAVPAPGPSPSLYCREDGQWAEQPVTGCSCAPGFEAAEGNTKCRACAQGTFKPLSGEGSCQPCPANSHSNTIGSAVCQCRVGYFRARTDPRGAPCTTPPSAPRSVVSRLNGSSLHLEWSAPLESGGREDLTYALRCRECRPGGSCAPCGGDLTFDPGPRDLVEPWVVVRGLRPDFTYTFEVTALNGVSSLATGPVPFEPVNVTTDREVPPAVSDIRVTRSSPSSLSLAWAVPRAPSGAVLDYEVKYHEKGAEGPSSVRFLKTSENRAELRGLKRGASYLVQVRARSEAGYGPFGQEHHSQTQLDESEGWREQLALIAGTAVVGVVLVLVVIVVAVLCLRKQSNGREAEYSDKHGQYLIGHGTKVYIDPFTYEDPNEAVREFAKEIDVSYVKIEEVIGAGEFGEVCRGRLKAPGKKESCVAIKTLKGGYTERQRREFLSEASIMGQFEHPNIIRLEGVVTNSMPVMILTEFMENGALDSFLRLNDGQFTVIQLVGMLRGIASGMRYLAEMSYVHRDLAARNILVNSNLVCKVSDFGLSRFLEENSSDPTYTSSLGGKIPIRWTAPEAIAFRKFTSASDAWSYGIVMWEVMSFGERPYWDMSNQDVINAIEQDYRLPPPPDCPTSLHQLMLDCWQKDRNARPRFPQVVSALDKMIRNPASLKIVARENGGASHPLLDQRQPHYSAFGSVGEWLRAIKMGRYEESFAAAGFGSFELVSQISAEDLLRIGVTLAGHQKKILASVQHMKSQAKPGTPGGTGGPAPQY
T4 sequence (Q02750 whole entry): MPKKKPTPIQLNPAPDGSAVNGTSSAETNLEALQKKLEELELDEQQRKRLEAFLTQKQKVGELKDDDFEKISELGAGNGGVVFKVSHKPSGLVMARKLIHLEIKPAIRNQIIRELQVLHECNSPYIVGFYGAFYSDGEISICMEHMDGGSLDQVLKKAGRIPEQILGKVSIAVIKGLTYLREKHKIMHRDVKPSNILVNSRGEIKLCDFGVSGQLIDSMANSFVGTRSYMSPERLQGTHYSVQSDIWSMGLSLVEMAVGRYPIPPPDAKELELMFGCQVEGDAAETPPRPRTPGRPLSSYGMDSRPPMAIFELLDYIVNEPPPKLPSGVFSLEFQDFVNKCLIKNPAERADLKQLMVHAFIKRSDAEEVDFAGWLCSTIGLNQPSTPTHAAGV
T25 sequence (P49137 whole entry): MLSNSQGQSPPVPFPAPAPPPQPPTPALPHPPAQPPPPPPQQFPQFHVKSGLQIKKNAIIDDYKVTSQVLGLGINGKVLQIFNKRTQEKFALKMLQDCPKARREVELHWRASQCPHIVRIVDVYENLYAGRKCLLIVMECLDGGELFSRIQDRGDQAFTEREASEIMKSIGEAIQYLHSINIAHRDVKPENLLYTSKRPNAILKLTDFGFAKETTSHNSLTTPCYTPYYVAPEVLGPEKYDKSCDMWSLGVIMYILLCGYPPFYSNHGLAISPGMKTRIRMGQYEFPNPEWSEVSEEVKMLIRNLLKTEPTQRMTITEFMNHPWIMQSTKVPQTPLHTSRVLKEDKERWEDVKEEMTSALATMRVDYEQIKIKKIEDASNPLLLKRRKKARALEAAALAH

Compound: Cc1cnc(N[C@H]2CC[C@H](N)CC2)nc1-c1cnc2ccc(-c3ccccc3)cn12 [CDDD11-8]
- remaining activity at 1 µM (EPHA8): 83.5%
- remaining activity at 1 µM (KSR2): 101%
- remaining activity at 1 µM (CDK19/cyclin C): 38%
- remaining activity at 1 µM (MEK1): 98.9%
- remaining activity at 1 µM (CDK9/cyclin T2): 2.35%
- remaining activity at 1 µM (MYO3b): 58.4%
- remaining activity at 1 µM (NEK3): 92.8%
- remaining activity at 1 µM (CDK2/Cyclin A1): 55.7%
- remaining activity at 1 µM (MLK1/MAP3K9): 43%
- remaining activity at 1 µM (EPHB1): 88.1%
- remaining activity at 1 µM (ERN2/IRE2): 45.4%
- remaining activity at 1 µM (CDC7/DBF4): 109%
- remaining activity at 1 µM (MYLK4): 11.5%
- remaining activity at 1 µM (PIM3): 72.6%
- remaining activity at 1 µM (DYRK2): 12.7%
- remaining activity at 1 µM (JAK2): 70%
- remaining activity at 1 µM (CK1a1): 102%
- remaining activity at 1 µM (MLK4): 112%
- remaining activity at 1 µM (CAMK1a): 80.7%
- remaining activity at 1 µM (MEKK3): 109%
- remaining activity at 1 µM (TRKA): 14.2%
- remaining activity at 1 µM (CDK17/cyclin Y (PCTK2)): 34.1%
- remaining activity at 1 µM (CAMK1b): 96.1%
- remaining activity at 1 µM (WEE1): 94.3%
- remaining activity at 1 µM (MAPKAPK2): 106%
- remaining activity at 1 µM (RON/MST1R): 97.9%
- remaining activity at 1 µM (ULK1): 108%
- remaining activity at 1 µM (EPHB4): 81%
- remaining activity at 1 µM (HIPK1): 105%
- remaining activity at 1 µM (JNK1): 105%

— paper PMC8909834, “An Orally Bioavailable and Highly Efficacious Inhibitor of CDK9/FLT3 for the Treatment of Acute Myeloid Leukemia” (Cancers, 2022)
